Data: patent US9089532B2, “Stable dosage form of phenylalanine derivatives” (Wilex AG, priority 2004, dated 2015)

Legend:
Format in all cases: physicochemical
[1] = Preliminary testing: solubility of WX-UK1 in solvents and solvent mixtures; conditions: in polyols, for example diols, and in mixtures of polyol/alcohol and water
Text: Both solvents are additionally suitable for parenteral administration of active ingredients.
FIG. 1 is a Table showing the maximum solubility of WX-UK1 in various solvents and solvent mixtures.

[2] = Stability study at 40° C./75% RH of the unbuffered PG/EtOH/water formulation (impurity content, pH value); conditions: 40 mg/ml in PG/ethanol/water, stored at 40° C., 2-12 weeks
Description: At the same time, the pH value of the formulation rose from 5.1 to 8.7 over a period of 12 weeks (FIG. 1).
0.4 ml of propylene glycol (PG) and 0.1 ml of ethanol were added in succession to 40 mg of WX-UK1. […] The remaining water (approx. 0.2 ml) was then added. The solution was then stored at 40° C. and the pH value and purity of the solution were in each case analysed after a period of 2, 4, 6, 8 and 12 weeks. To this end, 250 μl of the WX-UK1 solution were transferred into a 100 ml measuring flask and made up with water/acetonitrile (50:50 vol/vol) to the graduation mark (concentration: approx. 0.1 mg/ml of WX-UK1). 20 μl of this dilution were then analysed by means of a stability-indicating HPLC method analysed (see Annex). pH value-analysis of the WX-UK1 solution was carried out by means of a potentiometric method at 20-25° C.

[3] = pH-dependency of active ingredient breakdown at 60° C.; conditions: ethanol/water 1:1, 60° C., up to 48 h
Description: The pH-dependency of active ingredient breakdown (WX-UK1) was investigated at three different pH values with heat treatment at 60° C. by dissolving 2.5 mg of WX-UK1 in 1 ml of ethanol/water (1:1 vol/vol). This solution was aliquoted into three vessels. One aliquot was adjusted to pH 2 by addition of 20 μl of 1 N hydrochloric acid, a second aliquot was adjusted to pH 11 by addition of 20 μl of 2 N sodium hydroxide solution and the third aliquot was left at a neutral pH. After incubation, the solutions were analysed at defined points in time (0, 5, 12 and 48 h) by means of a stability-indicating HPLC method.

[4] = Stability of sodium acetate-buffered solutions of various molarities at 60° C.; conditions: buffering the formulation with sodium acetate pH 5, 60° C., relative to unbuffered formulation
Description: The stability study was carried out at 60° C. in order to achieve accelerated breakdown of WX-UK1 (FIG. 5). The WX-UK1 peak area percentage, determined by a stability-indicating HPLC method, was evaluated.

[5] = Earlier investigations: addition of phosphate buffer to WX-UK1 solutions

solubility [1]: very good solubility
stability (breakdown, HPLC) ([3]; acidic pH (pH 2)): remained stable
stability (breakdown, HPLC) ([3]; neutral or basic pH (pH 11)): moderate to rapid breakdown
precipitate formation [5]: formation of a precipitate
Structure (SMILES): CCOC(=O)N1CCN(C(=O)[C@H](Cc2cccc(C(=N)N)c2)NS(=O)(=O)c2c(C(C)C)cc(C(C)C)cc2C(C)C)CC1 [WX-UK1, Nα-(2,4,6-triisopropylphenylsulfonyl)-3-amidino-(L)-phenylalanine-4-ethoxycarbonylpiperazide]
breakdown in relation to pH value of the solution [2]: the higher is the pH value of the solution, the faster WX-UK1 breaks down
rate of breakdown [4]: considerable reduction in the rate of breakdown
